Experimental data taken from paper PMC8401132 (Molecules, 2021).
Like-named read-outs stand apart in the source and are kept apart here. Blank lines part the entries; values can stand above or below the compound they belong to.

Experiments:
[1] = Cu(II)/metformin complex formation constants by combined potentiometric-Vis titration; assay type: physicochemical; conditions: 0.1 M KCl, 25.0 °C, [L] = 4 mM, [Cu^2+] = 2 mM, potentiometry/Vis
Procedure: Protonation and complex-formation equilibrium studies were carried out under the same conditions described in previous publications. […]. Combined potentiometric–spectrophotometric measurements were performed for protonation equilibria in the 200–400 nm spectral range and in the 400–800 nm spectral range for copper (II) complexes, using 0.2 and 1 cm path lengths, respectively. Protonation and complex formation data were analyzed using the Hyperquad and HypSpec2014 program.

SW1222 cells [2] = experiment: CellTiter-Glo ATP cell viability/proliferation, SW1222; assay type: cell-based, human
Procedure: (§1) SW1222 were cultured in DMEM (Gibco, New York, NY, USA) media supplemented with 10% fetal bovine serum (FBS) (Gibco, New York, NY, USA) and 1% penicillin/streptomycin (Gibco, USA). Both K562 and K562/Adr200 were cultured in RPMI media (Gibco, New York, NY, USA) supplemented with 10% FBS and 1% penicillin/streptomycin. The seeding density for all the three cell lines was 1000 cells per well in 96 wells plates. […] From this experiment, the effective concentration that inhibited the growth of ≥50% of the cells was determined. […] Both metformin and copper sulfate were prepared in sterile nuclease-free water, then added to the media. The cells were maintained in culture for 72 h before any further assessments were done. […] A control sample of untreated cells was included in all experiments. […] The CellTiter-Glo® luminescent cell viability assay was used to determine levels of ATP release from each cell line after 72 h, according to manufacturer’s instructions.

K562 cells [3] = experiment: CellTiter-Glo ATP cell viability/proliferation, K562; assay type: cell-based, human; conditions: for IC50: Homo sapiens, K562, 72 h, K562, ATP release; for IC50 / Normalized ATP percentage: 72 h
Procedure: as §1

[4] = system: K562-200 (K562/Adr200) cells; experiment: CellTiter-Glo ATP cell viability/proliferation, K562-200; assay type: cell-based, human; conditions: for IC50: K562-200, ATP release, 72 h
Procedure: as §1

SW1222 cells [5] = experiment: Actin stress fiber staining and morphology, SW1222; assay type: cell-based, human; conditions: SW1222, 15 mM and 50 mM metformin, 72 h
Procedure: (§2) To assess the effects on actin stress fiber organization and cell morphology, rhodamine phalloidin was used. Cells were fixed in 4% paraformaldehyde 72 h post-treatment. Cells were permeabilized for 5 min in prechilled 0.5% Triton × 100, 3 mM MgCl2, and 300 mM sucrose, followed by washing with 1× DPBS. A blocking buffer composed of 5% fetal bovine serum (FBS), 0.1% Tween 20, and 0.02% sodium azide was then added to the cells for 30 min. Rhodamine phalloidin was incubated for one hour after removing and discarding the blocking buffer. Cells were subsequently washed with 1× PBS, and DAPI was added for nucleic acid staining prior to fluorescence imaging.

K562 cells [6] = experiment: Actin stress fiber staining, K562; assay type: cell-based, human; conditions: K562, 72 h
Procedure: as §2

K562-200 cells = experiment: Actin stress fiber staining, K562-200; assay type: cell-based, human; conditions: K562-200, 72 h
Procedure: as §2

[7] = potentiometry, cited from earlier work
[8] = set-up: method as in PMID 21168988; conditions: NMR, literature data ref 39; cited from earlier work
[9] = potentiometry, cited from earlier work; remark: listed apart in the source
[10] = system: human gastric cancer AGS cells; conditions: 20 mM for 12 h ref 56; cited from earlier work
[11] = system: normal colon CCD 841 CoN cells; conditions: 10–50 mM for 48 h ref 56; cited from earlier work
[12] = system: embryonic lung HEL 299 cells; conditions: 10–50 mM for 48 h ref 56; cited from earlier work
293 cells = conditions: 10–50 mM for 48 h ref 56; cited from earlier work
[13] = patients with diabetes, observational study published in 2005 ref 13; cited from earlier work
[14] = T2DM / diabetic patients ref 57; cited from earlier work

Logβ CuL2 [1]: 22.20(7) | Logβ CuL2H [1]: 28.3(1) | Logβ CuLH [1]: 17.87(5) | IC50 (SW1222 cells [2]; Homo sapiens, SW1222, ATP release, 72 h): 15600 µM | IC50 (K562 cells [3]): 851 µM | IC50 (K562 cells [3]; as in Figure 7B legend): ~1000 µM | IC50 ([4]; Homo sapiens, K562, 72 h): 63.1 µM | IC50 [4]: 63 µM
Structure (SMILES): CN(C)C(=N)N=C(N)N [metformin, 3-(diaminomethylidene)-1,1-dimethylguanidine]
Normalized ATP percentage (K562 cells [3]; K562, 10 mM metformin): 35.2% | Cell shrinkage and rounding (SW1222 cells [5]): dramatically increased | Lowest concentration showing loss of actin stress fibers (K562 cells [6]): 1 mM | Lowest concentration showing loss of actin stress fibers (K562-200 cells): 20 µM | Protonation constant LH ([7]; literature data ref 37): 11.02 [37] | Protonation constant LH2 ([7]; literature data ref 37): 2.79 [37] | Protonation constant LH ([7]; literature data ref 38): 11.10 [38] | Protonation constant LH2 ([7]; literature data ref 38): 2.90 [38] | Protonation constant LH [8]: 13.8 [39] | Protonation constant LH2 [8]: 3.1 [39] | LogK CuL ([9]; literature data ref 38): 8.59 [38] | LogK CuL2 ([9]; literature data ref 38): 6.35 [38] | LogK CuL ([9]; literature data ref 42): 7.17 [42] | LogK CuL2 ([9]; literature data ref 42): 5.13 [42] | Effect on cell viability [10]: significantly reduced cell viability | Effect on viability [11]: no significant effect | Effect on viability [12]: no significant effect | Effect on viability (293 cells): no significant effect | Decrease in cancer risk with metformin use [13]: 23% | Plasma concentration [14]: ~20 µM

Structure (SMILES): O=S(=O)([O-])[O-].[Cu+2] [Cu(II), copper (II) sulfate]
Inhibition of cell proliferation (% of the cells) (SW1222 cells [2]; SW1222, 400 µM Cu(II), absence of metformin): ≥ 50% | Effect on cells (SW1222 cells [2]; SW1222, 5 mM Cu(II), regardless of metformin concentration): almost all cells died | Inhibition of cell proliferation (% of the cells) (K562 cells [3]; K562, 400 µM Cu(II), absence of metformin): ≥ 50% | Normalized ATP percentage (K562 cells [3]; K562, 400 µM Cu(II), no metformin): 47.2% | Effect on cells (K562 cells [3]; K562, 5 mM Cu(II), regardless of metformin concentration): almost all cells died | Inhibition of cell proliferation (% of the cells) ([4]; K562-200, 400 µM Cu(II), absence of metformin): ≥ 50% | Effect on cells ([4]; K562-200, 5 mM Cu(II), regardless of metformin concentration): almost all cells died
